# Source: US20250171423A1, “PHARMACEUTICAL COMPOUNDS FOR THE TREATMENT OF COMPLEMENT MEDIATED DISORDERS” (Achillion Pharmaceuticals, Inc., priority 2020, published 2025)
# Biological target: T1, Human complement C1s enzyme (Homo sapiens, UniProt P09871)
# T1 construct: purified from human serum, Complement Technology, Inc; purchased Complement Technology, Inc; host or cells: human serum
# T1 sequence (P09871 438-688 limits assumed): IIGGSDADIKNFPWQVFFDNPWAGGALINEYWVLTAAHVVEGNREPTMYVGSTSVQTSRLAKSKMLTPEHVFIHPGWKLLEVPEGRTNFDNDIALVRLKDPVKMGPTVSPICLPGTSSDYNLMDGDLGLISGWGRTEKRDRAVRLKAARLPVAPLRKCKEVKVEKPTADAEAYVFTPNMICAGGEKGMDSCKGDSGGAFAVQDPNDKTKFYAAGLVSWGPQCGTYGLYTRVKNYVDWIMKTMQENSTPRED
# T1 sequence (P09871 16-437 partner limits assumed): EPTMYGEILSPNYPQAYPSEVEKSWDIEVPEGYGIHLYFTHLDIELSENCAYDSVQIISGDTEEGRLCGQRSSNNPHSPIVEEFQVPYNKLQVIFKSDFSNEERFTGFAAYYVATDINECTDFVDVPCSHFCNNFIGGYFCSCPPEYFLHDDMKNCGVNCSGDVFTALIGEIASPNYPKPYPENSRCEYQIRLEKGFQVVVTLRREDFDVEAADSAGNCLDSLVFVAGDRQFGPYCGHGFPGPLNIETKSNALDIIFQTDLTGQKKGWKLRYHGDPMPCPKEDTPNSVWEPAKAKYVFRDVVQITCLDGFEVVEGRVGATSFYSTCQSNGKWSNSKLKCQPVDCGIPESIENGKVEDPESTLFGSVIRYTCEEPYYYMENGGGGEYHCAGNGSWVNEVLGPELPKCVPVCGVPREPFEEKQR
# Assay: Human C1s Enzyme Assay
# Type: biochemical
# Details: human C1s 1.16 nM, 5 min preincubation, substrate Z-L-Lys-SBzl 100 μM, A405; read-out: C1s Protease Activity
# Summary of the method: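 C1s purified from human serum (1.16 nM final) was preincubated with compound for 5 min at room temperature in 50 mM Tris, 1 M NaCl, pH 7.5. Z-L-Lys-SBzl and DTNB were then added at 100 μM each, and A405 was followed for 30 min. IC50 came from nonlinear regression of reaction rates.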
row,IC50,SMILES
1,< 100 nM,"C[C@@]12C[C@@H]1N(C(=O)CNC(=O)c1ccc(Oc3ccc(S(C)(=N)=O)cc3)cc1)[C@H](C(=O)NCc1cc(C(=N)N)cs1)C2 (stereo partly drawn) [Compound 3, (1S,3S,5S)-N-((4-carbamimidoylthiophen-2-yl)methyl)-5-methyl-2-((4-(4-(S-methyl-sulfonimidoyl)phenoxy)benzoyl)glycyl)-2-azabicyclo[3.1.0]hexane-3-carboxamide]"
2,> 1000 nM,"N=C(N)c1csc([C@@H](NC(=O)[C@@H]2CC3(CN2C(=O)CNC(=O)CCCOc2ccccc2)OCCO3)C2CC2)c1 [Compound 178, (S)-N-((S)-(4-carbamimidoylthiophen-2-yl)(cyclopropyl)methyl)-7-((4-phenoxybutanoyl)glycyl)-1,4-dioxa-7-azaspiro[4.4]nonane-8-carboxamide]"
3,> 1000 nM,"C[C@@]12C[C@@H]1N(C(=O)CNC(=O)c1ccc(Oc3ccccc3)cc1)[C@H](C(=O)NCc1cc(C3=NCCN3)cs1)C2 [Compound 37, (1S,3S,5S)-N-((4-(4,5-dihydro-1H-imidazol-2-yl)thiophen-2-yl)methyl)-5-methyl-2-((4-phenoxybenzoyl)glycyl)-2-azabicyclo[3.1.0]hexane-3-carboxamide]"
4,< 100 nM,"N=C(N)c1csc(CNC(=O)[C@@H]2C[C@@H](c3ccc(F)cc3)CN2C(=O)CNC(=O)CCCOc2ccccc2)c1 [Compound 164, (2S,4S)-N-((4-carbamimidoylthiophen-2-yl)methyl)-4-(4-fluorophenyl)-1-((4-phenoxybutanoyl)glycyl)pyrrolidine-2-carboxamide]"
5,< 100 nM,"COC[C@H]1C[C@@H](C(=O)N[C@H](C)c2cc(C(=N)N)cs2)N(C(=O)CNC(=O)c2ccc(Oc3ccccc3)cc2)C1 (relative stereo) [Compound 252, (2S,4S*)-N-((R)-1-(4-carbamimidoylthiophen-2-yl)ethyl)-4-(methoxymethyl)-1-((4-phenoxybenzoyl)glycyl)pyrrolidine-2-carboxamide]"
6,< 100 nM,"Cc1ccc(O[C@@H]2C[C@@H](C(=O)N[C@H](C)c3cc(C(=N)N)cs3)N(C(=O)CNC(=O)CCCOc3ccccc3)C2)cc1 [Compound 131, (2S,4R)-N-((R)-1-(4-carbamimidoylthiophen-2-yl)ethyl)-1-((4-phenoxybutanoyl)glycyl)-4-(p-tolyloxy)pyrrolidine-2-carboxamide]"
7,> 1000 nM,"N=C(N)c1csc([C@@H](NC(=O)[C@@H]2C[C@@H](OC(F)F)CN2C(=O)CNC(=O)c2ccc(Oc3ccccc3)cc2)C(N)=O)c1 (relative stereo) [Compound 214, (2S,4R)-N-((S*)-2-amino-1-(4-carbamimidoylthiophen-2-yl)-2-oxoethyl)-4-(difluoromethoxy)-1-((4-phenoxybenzoyl)glycyl)pyrrolidine-2-carboxamide]"
8,< 100 nM,"C[C@@H](NC(=O)[C@@H]1CC2(CCCC2)CN1C(=O)CNC(=O)CCCOc1ccccc1)c1cc(C(=N)N)cs1 [Compound 114, (S)-N-((R)-1-(4-carbamimidoylthiophen-2-yl)ethyl)-2-((4-phenoxybutanoyl)glycyl)-2-azaspiro[4.4]nonane-3-carboxamide]"
9,> 1000 nM,"N=C(N)c1csc([C@H](NC(=O)[C@@H]2CC3(CN2C(=O)CNC(=O)CCCOc2ccccc2)OCCO3)c2ccccc2)c1 [Compound 175, (S)-N-((R)-(4-carbamimidoylthiophen-2-yl)(phenyl)methyl)-7-((4-phenoxybutanoyl)glycyl)-1,4-dioxa-7-azaspiro[4.4]nonane-8-carboxamide]"

# Second part, the compound before the results:
row,SMILES,IC50
1,"CC(C)C(NC(=O)[C@@H]1C[C@@H](OC(F)F)CN1C(=O)CNC(=O)c1ccc(Oc2ccccc2)cc1)c1cc(C(=N)N)cs1 (stereo in doubt) [Compound 188, (2S,4R)-N-((S)-1-(4-carbamimidoylthiophen-2-yl)-2-methylpropyl)-4-(difluoromethoxy)-1-((4-phenoxybenzoyl)glycyl)pyrrolidine-2-carboxamide]",> 1000 nM
2,"C[C@@]12C[C@@H]1N(C(=O)CNC(=O)c1ccc(Oc3ccccc3)cc1)[C@H](C(=O)NCc1cc3ccnc(N)c3s1)C2 [Compound 256, (1S,3S,5S)-N-((7-aminothieno[2,3-c]pyridin-2-yl)methyl)-5-methyl-2-((4-phenoxybenzoyl)glycyl)-2-azabicyclo[3.1.0]hexane-3-carboxamide]",> 1000 nM
3,"N=C(N)c1csc(CNC(=O)[C@@H]2C[C@@H](C(F)F)CN2C(=O)CNC(=O)c2ccc(Oc3ccccc3)cc2)c1 [Compound 151, (2S,4R)-N-((4-carbamimidoylthiophen-2-yl)methyl)-4-(difluoromethyl)-1-((4-phenoxybenzoyl)glycyl)pyrrolidine-2-carboxamide]",< 100 nM
4,"C[C@@H](NC(=O)[C@@H]1CC2(CN1C(=O)CNC(=O)CCCOc1ccccc1)OCCO2)c1cc(C(=N)N)cs1 [Compound 115, (S)-N-((R)-1-(4-carbamimidoylthiophen-2-yl)ethyl)-7-((4-phenoxybutanoyl)glycyl)-1,4-dioxa-7-azaspiro[4.4]nonane-8-carboxamide]",< 100 nM
5,"CC(=O)NCCOC[C@@]12C[C@@H]1N(C(=O)CNC(=O)CCCOc1ccccc1)[C@H](C(=O)N[C@H](C)c1cc(C(=N)N)cs1)C2 [Compound 142, (1S,3S,5R)-5-((2-acetamidoethoxy)methyl)-N-((R)-1-(4-carbamimidoylthiophen-2-yl)ethyl)-2-((4-phenoxybutanoyl)glycyl)-2-azabicyclo[3.1.0]hexane-3-carboxamide]",100 to 1000 nM
6,"C[C@@H](NC(=O)[C@@H]1C[C@]2(C)C[C@@H]2N1C(=O)CNC(=O)c1ccc(C(=O)c2ccccc2)cc1)c1cc(C(=N)N)cs1 [Compound 180, (1S,5S)-2-((4-benzoylbenzoyl)glycyl)-N-((R)-1-(4-carbamimidoylthiophen-2-yl)ethyl)-5-methyl-2-azabicyclo[3.1.0]hexane-3-carboxamide]",< 100 nM
7,"C[C@@H](NC(=O)[C@@H]1CC2(CN1C(=O)CNC(=O)CCCOc1ccccc1)OCCO2)c1ccc(C(=N)N)s1 [Compound 133, (S)-N-((R)-1-(5-carbamimidoylthiophen-2-yl)ethyl)-7-((4-phenoxybutanoyl)glycyl)-1,4-dioxa-7-azaspiro[4.4]nonane-8-carboxamide]",< 100 nM
8,"C[C@@]12C[C@@H]1N(C(=O)CNC(=O)c1ccc(Oc3ccccc3)cc1)[C@H](C(=O)NCc1cnc(N)s1)C2 [Compound 102, (1S,3S,5S)-N-[(2-amino-1,3-thiazol-5-yl)methyl]-5-methyl-2-{2-[(4-phenoxyphenyl)-formamido]acetyl}-2-azabicyclo[3.1.0]hexane-3-carboxamide]",100 to 1000 nM
9,"N=C(N)c1csc(CNC(=O)[C@@H]2C[C@H](OC(F)F)CN2C(=O)CNC(=O)c2ccc(Oc3ccccc3)cc2)c1 [Compound 36, (2S,4S)-N-((4-carbamimidoylthiophen-2-yl)methyl)-4-(difluoromethoxy)-1-((4-phenoxybenzoyl)glycyl)pyrrolidine-2-carboxamide]",< 100 nM
10,"CO[C@@H]1C[C@@H](C(=O)N[C@H](C)c2cc(C(=N)N)cs2)N(C(=O)CNC(=O)c2ccc(Oc3ccccc3)cc2)C1 [Compound 185, (2S,4R)-N-((R)-1-(4-carbamimidoylthiophen-2-yl)ethyl)-4-methoxy-1-((4-phenoxybenzoyl)glycyl)pyrrolidine-2-carboxamide]",< 100 nM
